From patent publication US5534498A, “Trypsin inhibitors” (Corvas International, Inc., priority 1993, dated 1996)
pIC50, pKi: −log10 of the molar value. Residues, ends and D or L forms follow the SMILES beside them. *: point of attachment. Boc = CC(C)(C)OC(=O)*

Tests used:
Assay type in all cases: biochemical
[1] = biological target: bovine and human pancreatic trypsin; test: Potency: determination of inhibitor constant Ki against trypsin (S-2222 substrate, Dixon plot); conditions: 37° C., TBS pH 7.4, 15 min preincubation, read-out: Ki For Peptide Aldehydes Against Trypsin
Experimental: The potency and specificity of the compounds of the present invention are determined by in vitro assay methods well known in the art. […] Specifically, the inhibitor constant, Ki, of the compounds can be determined by the method of Dixon, Biochem. J. 55:170 (1953). The specificity is assessed by determination of the concentration, IC50, of compound required to give 50% inhibition of the enzymatic activity of the coagulation enzymes, kallikrein, factor XIa, factor VIIa, factor Xa, thrombin; the fibrinolysis enzymes, plasmin, tissue plasminogen activator (tPA), and urokinase (UK), and the anticoagulation enzyme, protein C. Specificity is found when the concentration of compound giving 50% inhibition of trypsin is low relative to the concentration required to give like inhibition of the other enzymes.
Enzyme activity was determined using as substrate S-2222 [N-benzoyl-L-isoleucyl-L-glutamyl-glycyl-L-arginine-p-nitroanilide hydrochloride where glutamyl side chain is 50% carboxylic acid and 50% methyl ester], purchased from Kabi Diagnostica. The substrate was made up in deionized water prior to use.
A 96-well microtiter plate was prepared for use in the assay by incubating each well with 300 μL of 1% bovine serum albumin (in deionized water) for 30 minutes at 37° C., and washing three times with deionized water.
To each well was added 50 μL TBS (0.1M Tris, 0.14M NaCl, pH 7.4), 50 μL 2.5 nM trypsin and 50 μL peptide aldehyde in TBS or TBS alone. After incubating for 15 minutes at 37° C., 50 μL of S-2222 (at 37° C.) at a specified concentration was added to each well. After mixing, the rate of substramte turnover at 37° C. was measured for 30 minutes at 405 nm (generation of p-nitroaniline). The initial S-2222 concentrations in the assay mixture were 0.45, 0.23, 0.11, 0.056, and 0.028 mM.
Ki was determined graphically using a Dixon plot, as described in Dixon, Biochem. J. 55:170 (1953).

human kallekrein = biological target: T1, human kallekrein (Homo sapiens, UniProt P03952); test: Kallikrein assay (S-2302 substrate); conditions: for pIC50: 30 min preincubation, room temperature, tested 0.025-25 μM, Inact. = no inhibition at highest concentration; for Calculated % Selectivity Kallikrein: [IC50 for Trypsin/IC50 for other enzyme]×100, lower = more trypsin selective
T1 construct: 50 μL of 4 to 9 nM human kallekrein
T1 sequence (P03952 391-638 limits assumed): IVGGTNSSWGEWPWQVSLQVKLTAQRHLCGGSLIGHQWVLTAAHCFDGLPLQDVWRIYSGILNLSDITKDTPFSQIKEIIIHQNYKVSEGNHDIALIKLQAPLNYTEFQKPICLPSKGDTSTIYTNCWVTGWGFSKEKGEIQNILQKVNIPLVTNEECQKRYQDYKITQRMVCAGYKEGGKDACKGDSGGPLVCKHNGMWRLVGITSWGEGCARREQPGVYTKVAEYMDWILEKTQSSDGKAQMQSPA
T1 sequence (P03952 20-390 partner limits assumed): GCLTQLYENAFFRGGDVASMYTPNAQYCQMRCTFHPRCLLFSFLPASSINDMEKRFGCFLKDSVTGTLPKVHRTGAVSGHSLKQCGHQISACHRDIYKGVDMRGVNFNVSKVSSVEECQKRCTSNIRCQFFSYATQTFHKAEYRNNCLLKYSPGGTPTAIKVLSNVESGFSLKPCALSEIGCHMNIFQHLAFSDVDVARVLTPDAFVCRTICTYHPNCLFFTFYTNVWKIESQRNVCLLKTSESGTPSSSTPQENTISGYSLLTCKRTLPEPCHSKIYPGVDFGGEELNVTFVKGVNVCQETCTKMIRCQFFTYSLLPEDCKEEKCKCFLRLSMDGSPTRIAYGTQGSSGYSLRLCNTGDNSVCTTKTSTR
Experimental: (§1) The specificity of the peptide aldehydes (8 through 12) was determined in vitro by measurement of their IC50 against other enzymes involved in hemostasis. A specific concentration of enzyme and its substrate were challenged with varying concentrations of inhibitor. […] Specific assay procedures used are presented below.
(§2) 96-well microtiter plates were prepared for use in these assays by incubating each well with 300 μL 1% bovine serum albumin (in deionized water) for 30 minutes at 37° C., then washing three times with deionized water.
(§3) The substrate was made up in deionized water prior to use.

human Factor XIa = biological target: T2, human Factor XIa (Homo sapiens, UniProt P03951); test: Factor XIa assay (S-2366 substrate); conditions: for pIC50: 30 min preincubation, room temperature, tested 0.025-25 μM, Inact. = no inhibition at highest concentration; for Calculated % Selectivity XIa: [IC50 for Trypsin/IC50 for other enzyme]×100, lower = more trypsin selective
T2 construct: 50 μL of 5 nM human Factor XIa
T2 sequence (P03951 388-625 limits assumed): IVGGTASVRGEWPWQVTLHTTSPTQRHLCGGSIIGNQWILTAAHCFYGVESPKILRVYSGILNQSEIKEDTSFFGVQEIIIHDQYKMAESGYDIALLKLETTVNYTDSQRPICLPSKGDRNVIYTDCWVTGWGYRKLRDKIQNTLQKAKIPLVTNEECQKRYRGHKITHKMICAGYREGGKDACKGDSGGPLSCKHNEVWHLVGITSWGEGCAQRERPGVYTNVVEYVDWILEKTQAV
T2 sequence (P03951 19-387 partner limits assumed): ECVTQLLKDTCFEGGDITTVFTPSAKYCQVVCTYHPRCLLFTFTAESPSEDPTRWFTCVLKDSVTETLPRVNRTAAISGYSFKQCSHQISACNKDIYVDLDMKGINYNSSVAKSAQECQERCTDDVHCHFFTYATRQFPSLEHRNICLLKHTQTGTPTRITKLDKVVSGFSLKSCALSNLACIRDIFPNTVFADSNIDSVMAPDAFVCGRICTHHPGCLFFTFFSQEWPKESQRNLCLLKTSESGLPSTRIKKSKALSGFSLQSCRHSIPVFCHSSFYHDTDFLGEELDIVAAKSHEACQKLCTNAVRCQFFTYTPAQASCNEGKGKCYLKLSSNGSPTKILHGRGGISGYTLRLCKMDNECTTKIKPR
Experimental: as §1, §2, §3

Factor VIIa:rTF complex = biological target: T3, Factor VIIa:rTF complex (Homo sapiens, UniProt P08709); test: Factor VIIa assay (S-2288 substrate); conditions: for Calculated % Selectivity VIIa: [IC50 for Trypsin/IC50 for other enzyme]×100, lower = more trypsin selective
T3 construct: 2.5 ml 400 nMhuman Factor VIIa
T3 sequence (P08709 213-466 limits assumed): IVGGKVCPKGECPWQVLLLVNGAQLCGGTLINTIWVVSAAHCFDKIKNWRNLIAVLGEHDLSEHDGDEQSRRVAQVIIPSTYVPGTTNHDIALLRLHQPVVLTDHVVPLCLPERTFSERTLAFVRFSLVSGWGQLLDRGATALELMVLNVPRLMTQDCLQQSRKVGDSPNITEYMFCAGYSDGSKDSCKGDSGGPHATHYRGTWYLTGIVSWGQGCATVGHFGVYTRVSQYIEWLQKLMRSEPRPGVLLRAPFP
T3 sequence (P08709 61-212 partner limits assumed): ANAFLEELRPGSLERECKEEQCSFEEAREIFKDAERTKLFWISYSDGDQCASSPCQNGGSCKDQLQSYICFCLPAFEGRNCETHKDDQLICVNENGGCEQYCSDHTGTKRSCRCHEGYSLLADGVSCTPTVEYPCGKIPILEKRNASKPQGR
T3 sequence (P13726 33-295 partner): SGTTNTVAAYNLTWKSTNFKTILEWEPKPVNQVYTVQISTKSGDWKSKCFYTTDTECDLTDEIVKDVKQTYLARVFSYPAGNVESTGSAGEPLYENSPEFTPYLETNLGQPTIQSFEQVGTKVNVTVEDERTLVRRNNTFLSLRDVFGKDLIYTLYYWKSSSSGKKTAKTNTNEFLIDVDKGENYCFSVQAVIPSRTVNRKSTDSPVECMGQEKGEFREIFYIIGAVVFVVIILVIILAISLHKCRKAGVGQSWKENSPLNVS
Experimental: (§4) The specificity of the peptide aldehydes (8 through 12) was determined in vitro by measurement of their IC50 against other enzymes involved in hemostasis. A specific concentration of enzyme and its substrate were challenged with varying concentrations of inhibitor. IC50 is that concentration of inhibitor giving 50% inhibition of substrate turnover, under the assay conditions. Specific assay procedures used are presented below.
as §2
Enzyme activity was determined using as substrate, S-2288 [D-isoleucyl-L-prolyl-L-arginine-p-nitroanilide dihydrochloride], purchased from Kabi Diagnostica. The substrate was made up in deionized water prior to use.
Both solutions were then incubated for 30 minutes at room temperature before use in the assay.
The assay was run by combining in appropriate wells 50 μL inhibitor in TBS or TBS alone and 100 μL of Factor VIIa:rTF complex or background control, incubating this mixture for 30 minutes at room temperature, adding 50 μL of 2 mM S-2288, incubating for an additional 30 to 60 minutes at room temperature, then reading the absorbance of the wells at 405 nm on a microtiter plate reader set with background substraction at 650 nm.

human Factor Xa = biological target: T4, human Factor Xa (Homo sapiens, UniProt P00742); test: Factor Xa assay (Pefachrome Xa substrate); conditions: for Calculated % Selectivity Xa: [IC50 for Trypsin/IC50 for other enzyme]×100, lower = more trypsin selective
T4 construct: 50 μL 30 nM human Factor Xa
T4 sequence (P00742 235-488 limits assumed): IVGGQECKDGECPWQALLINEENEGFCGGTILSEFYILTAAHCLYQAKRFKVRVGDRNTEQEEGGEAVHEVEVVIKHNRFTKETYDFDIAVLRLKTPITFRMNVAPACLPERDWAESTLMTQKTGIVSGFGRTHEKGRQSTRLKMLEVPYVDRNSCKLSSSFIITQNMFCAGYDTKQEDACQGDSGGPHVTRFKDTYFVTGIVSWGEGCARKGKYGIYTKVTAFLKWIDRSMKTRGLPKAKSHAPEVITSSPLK
T4 sequence (P00742 41-179 partner limits assumed): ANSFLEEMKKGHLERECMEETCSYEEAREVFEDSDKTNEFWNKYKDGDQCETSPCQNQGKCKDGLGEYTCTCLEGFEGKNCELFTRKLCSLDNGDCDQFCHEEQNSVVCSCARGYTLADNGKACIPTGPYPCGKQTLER
Experimental: as §1, §2
Enzyme activity was determined using as substrate, Pefachrome Xa [N-methoxycarbonyl-D-cyclohexylalanyl-L-glycyl-L-arginine p-niroanilide acetate], purchased from Centerchem, Inc. The substrate was made up in deionized water prior to use.

bovine thrombin = biological target: T5, bovine thrombin (Bos taurus, UniProt P00735); test: Thrombin assay (S-2238 substrate); conditions: for pIC50: 30 min preincubation, room temperature, tested 0.025-25 μM, Inact. = no inhibition at highest concentration; for Calculated % Selectivity Thrombin: [IC50 for Trypsin/IC50 for other enzyme]×100, lower = more trypsin selective
T5 construct: 50 μL 20 nM bovine thrombin
Experimental: as §4, §2
Enzyme activity was determined using as substrate, S-2238 [D-phenylalanyl-L-pipecolyl-L-arginine-p-nitroanilide dihydrochloride], purchased from Kabi Diagnostica. The substrate was made up in deionized water prior to use.
The assay was run by combining in appropriate wells 50 μL TBS and 50 μL inhibitor in TBS or TBS alone and 50 μL 20 nM bovine thrombin (or TBS as background control), incubating this mixture for 30 minutes at room temperature, adding 50 μL 1 mM S-2238, incubating for an additional 30 minutes at room temperature, then reading the absorbance of the wells at 405 nm on a microtiter plate reader set with background substraction at 650 nm.

[2] = biological target: T6, Activated human Protein C (Homo sapiens, UniProt P04070); test: Protein C assay (Pefachrome PC substrate); conditions: for Calculated % Selectivity Protein C: [IC50 for Trypsin/IC50 for other enzyme]×100, lower = more trypsin selective
T6 construct: from tissue
T6 sequence (P04070 212-461 limits assumed): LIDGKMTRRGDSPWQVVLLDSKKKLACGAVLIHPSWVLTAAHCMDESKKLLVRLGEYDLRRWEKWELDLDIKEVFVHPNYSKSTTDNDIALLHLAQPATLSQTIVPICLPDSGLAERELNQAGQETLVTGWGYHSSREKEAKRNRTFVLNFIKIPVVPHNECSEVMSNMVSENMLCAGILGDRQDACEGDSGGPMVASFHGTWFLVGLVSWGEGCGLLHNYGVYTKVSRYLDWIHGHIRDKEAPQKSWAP
T6 sequence (P04070 43-197 partner limits assumed): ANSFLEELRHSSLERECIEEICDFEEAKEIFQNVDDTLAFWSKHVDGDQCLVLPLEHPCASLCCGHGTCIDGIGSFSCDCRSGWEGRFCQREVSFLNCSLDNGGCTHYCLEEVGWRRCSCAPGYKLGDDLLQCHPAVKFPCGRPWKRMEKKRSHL
Experimental: as §1, §2
Enzyme activity was determined using as substrate, Pefachrome PC [δ-carbobenzoloxy-D-lysyl-L-prolyl-L-arginine-p-nitroanilide], purchased from Centerchem, Inc. The substrate was made up in deionized water prior to use. Protac used to activate Protein C was obtained from American Diagnostics.

[3] = biological target: recombinant tissue plasminogen activator (Homo sapiens, UniProt P00750); test: Tissue plasminogen activator assay (S-2288 substrate); conditions: for IC50 tPA / pIC50: 30 min preincubation, room temperature, tested 0.025-25 μM, Inact. = no inhibition at highest concentration; for Calculated % Selectivity tPA: [IC50 for Trypsin/IC50 for other enzyme]×100, lower = more trypsin selective
Sequence of recombinant tissue plasminogen activator (P00750 36-562): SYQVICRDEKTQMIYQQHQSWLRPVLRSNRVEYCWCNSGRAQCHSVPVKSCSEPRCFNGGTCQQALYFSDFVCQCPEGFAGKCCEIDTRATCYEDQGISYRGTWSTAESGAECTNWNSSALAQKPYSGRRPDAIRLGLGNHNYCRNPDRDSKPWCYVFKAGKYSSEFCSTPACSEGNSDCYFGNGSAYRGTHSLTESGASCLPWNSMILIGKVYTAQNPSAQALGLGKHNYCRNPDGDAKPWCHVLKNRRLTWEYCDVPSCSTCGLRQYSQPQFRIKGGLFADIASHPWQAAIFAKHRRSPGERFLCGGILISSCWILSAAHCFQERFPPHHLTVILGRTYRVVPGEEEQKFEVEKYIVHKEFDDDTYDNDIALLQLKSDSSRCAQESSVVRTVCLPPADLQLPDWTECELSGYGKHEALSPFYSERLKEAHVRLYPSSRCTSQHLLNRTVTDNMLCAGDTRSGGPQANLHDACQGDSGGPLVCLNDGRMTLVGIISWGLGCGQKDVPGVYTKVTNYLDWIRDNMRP
Experimental: as §1, §2, §3

human urokinase = biological target: T7, human urokinase (Homo sapiens, UniProt P00749); test: Urokinase assay (S-2444 substrate); conditions: for Calculated % Selectivity UK: [IC50 for Trypsin/IC50 for other enzyme]×100, lower = more trypsin selective
T7 construct: 50 μL of 270 U/mL human urokinase
Experimental: as §4, §2
Enzyme activity was determined using as substrate S-2444 [L-pyroglutamyl-L-glycyl-L-arginine-p-nitroanilide hydrochloride], purchased from Kabi Diagnostica. The substrate was made up in deionized water prior to use.
The assay was run by combining in appropriate wells 50 μL inhibitor in TBS or TBS alone and 50 μL of 270 U/mL human urokinase (or TBS as background control) and 50 μL TBS, incubating this mixture for 30 minutes at room temperature, adding 50 μL 1 mM S-2444, incubating for an additional 30 minutes at room temperature, then reading the absorbance of the wells at 405 nm on a microtiter plate reader set with background substraction at 650 nm.

bovine trypsin = biological target: T8, bovine trypsin (Bos taurus, UniProt P00760); test: Trypsin assay, IC50 (S-2222 substrate); conditions: for pIC50: 30 min preincubation, room temperature, tested 0.025-25 μM; for Calculated % Selectivity Trypsin: trypsin relative to itself (reference, 100 by definition)
T8 sequence (P00760 24-246): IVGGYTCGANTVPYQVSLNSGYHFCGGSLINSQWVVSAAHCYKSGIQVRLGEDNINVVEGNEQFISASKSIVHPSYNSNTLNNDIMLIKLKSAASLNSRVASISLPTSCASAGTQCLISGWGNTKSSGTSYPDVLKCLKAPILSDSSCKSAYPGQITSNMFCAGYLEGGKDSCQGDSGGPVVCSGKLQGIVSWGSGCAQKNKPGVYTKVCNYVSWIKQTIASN
Experimental: as §1, §2, §3

plasmin = plasmin (Homo sapiens, UniProt P00747); test: Plasmin assay (S-2251 substrate); parameters: 50 μL 25 nM human plasmin; conditions: for pIC50: 30 min preincubation, room temperature, tested 0.025-25 μM, Inact. = no inhibition at highest concentration; for Calculated % Selectivity Plasmin: [IC50 for Trypsin/IC50 for other enzyme]×100, lower = more trypsin selective
Sequence of plasmin (P00747 581-810 limits assumed): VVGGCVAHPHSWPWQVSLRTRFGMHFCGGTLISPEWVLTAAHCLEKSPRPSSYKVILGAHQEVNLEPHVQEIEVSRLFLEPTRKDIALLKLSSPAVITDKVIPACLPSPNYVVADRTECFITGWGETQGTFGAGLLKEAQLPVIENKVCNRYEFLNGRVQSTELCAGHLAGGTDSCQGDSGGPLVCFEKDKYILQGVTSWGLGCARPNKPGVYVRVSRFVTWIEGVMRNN
Sequence of plasmin (P00747 97-580 partner limits assumed): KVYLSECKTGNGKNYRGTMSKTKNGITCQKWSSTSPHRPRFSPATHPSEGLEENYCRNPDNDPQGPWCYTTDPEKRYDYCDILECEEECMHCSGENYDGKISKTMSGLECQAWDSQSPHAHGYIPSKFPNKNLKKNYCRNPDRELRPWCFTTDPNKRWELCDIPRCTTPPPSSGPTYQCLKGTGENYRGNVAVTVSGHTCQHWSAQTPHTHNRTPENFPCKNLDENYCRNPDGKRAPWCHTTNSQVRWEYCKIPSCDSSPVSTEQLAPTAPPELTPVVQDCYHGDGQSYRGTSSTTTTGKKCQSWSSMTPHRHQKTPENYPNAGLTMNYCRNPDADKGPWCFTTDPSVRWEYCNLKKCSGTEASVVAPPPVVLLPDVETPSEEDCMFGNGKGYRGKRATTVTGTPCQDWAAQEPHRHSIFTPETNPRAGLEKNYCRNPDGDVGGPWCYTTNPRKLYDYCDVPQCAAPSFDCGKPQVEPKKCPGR
Experimental: as §1, §2, §3

[4] = 30 min preincubation, room temperature, tested 0.025-25 μM, Inact. = no inhibition at highest concentration

Structure (SMILES) | pKi [1] | pIC50 (human kallekrein) | Calculated % Selectivity Kallikrein (human kallekrein) [%] | pIC50 (human Factor XIa) | Calculated % Selectivity XIa (human Factor XIa) [%] | pIC50 (Factor VIIa:rTF complex; [4]) | Calculated % Selectivity VIIa (Factor VIIa:rTF complex) [%] | Calculated % Selectivity Xa (human Factor Xa) [%] | pIC50 (bovine thrombin) | Calculated % Selectivity Thrombin (bovine thrombin) [%] | Calculated % Selectivity Protein C [2] [%] | Calculated % Selectivity tPA [3] [%] | pIC50 (human urokinase; [4]) | Calculated % Selectivity UK (human urokinase) [%] | pIC50 (bovine trypsin) | Calculated % Selectivity Trypsin (bovine trypsin) [%] | pIC50 (plasmin) | Calculated % Selectivity Plasmin (plasmin) [%] | pIC50 (human Factor Xa; [4]) | pIC50 [2, 4] | other results
CC(C)(C)OC(=O)N[C@@H](CCC(=O)O)C(=O)N1CCC[C@H]1C(=O)N[C@H](C=O)CCCNC(=N)N [Compound 8, N-t-butyloxycarbonyl-L-Glu-L-Pro-L-argininal] (Boc-Glu-Pro-Arg-aldehyde) | 8.85 | 5.22 | 0.10 | 5.40 | 0.15 | < 4.60 | < 0.02 | 0 | 4.85 | 0.04 | 0 | 0 | 5.05 | 0.07 | 8.22 | 100 | 6.22 | 1 |  |  | IC50 Xa (human Factor Xa; [4]): Inact.; IC50 Protein C [2, 4]: Inact.; IC50 tPA [3]: Inact.
CC(C)COC(=O)NC(CC(=O)O)C(=O)N1CCCC1C(=O)NC(C=O)CCCN=C(N)N [Compound 10, N-isobutyloxycarbonyl-L-Asp-L-Pro-L-argininal] |  | 5.10 | < 0.3 | 4.89 | < 0.19 |  | 0 | < 1.3 | 5.05 | < 0.28 | < 0.1 | < 0.1 | < 4.60 | < 0.1 | > 7.60 | 100 | 5.92 | < 2 | 5.70 | < 4.60 | IC50 VIIA (Factor VIIa:rTF complex; [4]): Inact.; pIC50 [3]: < 4.60
N=C(N)NCCC[C@@H](C=O)NC(=O)[C@@H]1CCCN1C(=O)[C@H](CC(=O)O)NC(=O)OC12CC3CC(CC(C3)C1)C2 [Compound 11, N-adamantyloxycarbonyl-L-AsP-L-Pro-L-argininal] | 9.70 | 5.70 | < 1.3 | 5.22 | < 0.42 | < 4.60 | < 0.1 | < 0.83 | 5.00 | < 0.25 | < 0.1 | < 0.1 | 4.72 | < 0.1 | > 7.60 | 100 | 5.96 | < 2 | 6.52 | < 4.60 | pIC50 [3]: < 4.60
CC(=O)N[C@@H](CC(C)C)C(=O)N[C@@H](CC(C)C)C(=O)N[C@H](C=O)CCCNC(=N)N [Leupeptin, reference compound] |  | 5.40 |  | 4.96 |  | < 4.60 |  |  | 4.70 |  |  |  |  |  | 5.77 |  | 5.10 |  | 4.60 | < 4.60 | IC50 tPA [3]: Inact.; IC50 UK (human urokinase; [4]): Inact.
